PubChem BioAssay (NCI)
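Dose response: 5 concentrations. Exposure: 48 h. Format: 96-well plates. Endpoint: linear interpolation; highest concentration if not reached. GI50 = concentration required for 50% inhibition of growth. The concentration for full growth arrest is given as TGI.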

Key:
Experiment in all cases: NCI tumour cell line growth inhibition, 48 h
[1] = test system: HOP-92 NSCLC
[2] = test system: RPMI-8226 leukemia
[3] = test system: CAKI-1 renal
[4] = test system: SF-539 CNS
[5] = test system: MDA-MB-435
[6] = test system: SK-OV-3 ovarian
[7] = test system: HCT-15 colon
[8] = test system: SF-295 CNS
[9] = test system: T-47D breast
[10] = test system: OVCAR-5 ovarian
[11] = test system: OVCAR-3 ovarian
[12] = test system: HCC-2998 colon
[13] = test system: 786-0 renal
[14] = test system: SNB-19 CNS
[15] = test system: BT-549 breast
[16] = test system: U251 CNS
[17] = test system: NCI-H23 lung
[18] = test system: HS 578T breast
[19] = test system: IGROV1 ovarian
[20] = test system: NCI-H522 lung
[21] = test system: OVCAR-4 ovarian
[22] = test system: SK-MEL-2 melanoma
[23] = test system: MCF7 breast
[24] = test system: DU-145 prostate
[25] = test system: A549 NSCLC
[26] = test system: M14 melanoma
[27] = test system: SR leukemia
[28] = test system: NCI/ADR-RES ovarian
[29] = test system: TK-10 renal
[30] = test system: A498 renal
[31] = test system: LOX IMVI melanoma
[32] = test system: SK-MEL-5 melanoma
[33] = test system: SNB-75 CNS
[34] = test system: RXF 393 renal
[35] = test system: UO-31 renal
[36] = test system: COLO 205 colon
[37] = test system: SN12C renal
[38] = test system: UACC-257 melanoma
[39] = test system: ACHN renal
[40] = test system: MDA-MB-231 breast
[41] = test system: SK-MEL-28 melanoma
[42] = test system: KM12 colon
[43] = test system: HOP-62 NSCLC
[44] = test system: CCRF-CEM leukemia
[45] = test system: PC-3 prostate
[46] = test system: NCI-H226 lung
[47] = test system: UACC-62 melanoma
[48] = test system: NCI-H460 lung
[49] = test system: SF-268 CNS
[50] = test system: MOLT-4 leukemia
[51] = test system: SW-620 colon
[52] = test system: OVCAR-8 ovarian
[53] = test system: HL-60(TB) leukemia
[54] = test system: HCT-116 colon

Structure (SMILES): Oc1ccc(Cl)cc1-c1cc(-c2ccc(Cl)cc2)n[nH]1
- GI50 [1]: 1.18 µM
- TGI [1]: 4.6 µM
- GI50 [2]: 2.11 µM
- TGI [2]: 7.39 µM
- GI50 [3]: 1.87 µM
- TGI [3]: 11.3 µM
- GI50 [4]: 3.56 µM
- TGI [4]: 14.7 µM
- GI50 [5]: 3.14 µM
- TGI [5]: 14.2 µM
- GI50 [6]: 2.21 µM
- TGI [6]: 13.8 µM
- GI50 [7]: 0.349 µM
- TGI [7]: 6.31 µM
- GI50 [8]: 3.01 µM
- TGI [8]: 12.8 µM
- GI50 [9]: 1.45 µM
- TGI [9]: 7.73 µM
- GI50 [10]: 9.55 µM
- TGI [10]: 36.5 µM
- GI50 [11]: 1.53 µM
- TGI [11]: 4.59 µM
- GI50 [12]: 1.86 µM
- TGI [12]: 11.5 µM
- GI50 [13]: 2.51 µM
- TGI [13]: 7.54 µM
- GI50 [14]: 2.59 µM
- TGI [14]: 12.1 µM
- GI50 [15]: 2 µM
- TGI [15]: 9.45 µM
- GI50 [16]: 3.2 µM
- TGI [16]: 11.3 µM
- GI50 [17]: 2.03 µM
- TGI [17]: 6.26 µM
- GI50 [18]: 4.13 µM
- TGI [18]: 31.6 µM
- GI50 [19]: 1.9 µM
- TGI [19]: 15.9 µM
- GI50 [20]: 3.26 µM
- TGI [20]: 12.9 µM
- GI50 [21]: 0.322 µM
- TGI [21]: 5.7 µM
- GI50 [22]: 11.3 µM
- TGI [22]: 30.1 µM
- GI50 [23]: 0.551 µM
- TGI [23]: 5.25 µM
- GI50 [24]: 3.02 µM
- TGI [24]: 11 µM
- GI50 [25]: 2.99 µM
- TGI [25]: 13.9 µM
- GI50 [26]: 2.72 µM
- TGI [26]: 11.6 µM
- GI50 [27]: 0.577 µM
- TGI [27]: 12.3 µM
- GI50 [28]: 2.67 µM
- TGI [28]: 7.92 µM
- GI50 [29]: 3.56 µM
- TGI [29]: 12.4 µM
- GI50 [30]: 10.9 µM
- TGI [30]: 23.9 µM
- GI50 [31]: 2.02 µM
- TGI [31]: 5.65 µM
- GI50 [32]: 1.35 µM
- TGI [32]: 10.2 µM
- GI50 [33]: 1.44 µM
- TGI [33]: 10.8 µM
- GI50 [34]: 6.01 µM
- TGI [34]: 20.8 µM
- GI50 [35]: 1.38 µM
- TGI [35]: 10.1 µM
- GI50 [36]: 3.73 µM
- TGI [36]: 15.3 µM
- GI50 [37]: 3.13 µM
- TGI [37]: 15.5 µM
- GI50 [38]: 9.92 µM
- TGI [38]: 37.7 µM
- GI50 [39]: 2.45 µM
- TGI [39]: 9.23 µM
- GI50 [40]: 0.624 µM
- TGI [40]: 6.79 µM
- GI50 [41]: 4.46 µM
- TGI [41]: 21.2 µM
- GI50 [42]: 1.69 µM
- TGI [42]: 6.21 µM
- GI50 [43]: 1.6 µM
- TGI [43]: 13.6 µM
- GI50 [44]: 1.45 µM
- TGI [44]: 14.5 µM
- GI50 [45]: 1.78 µM
- TGI [45]: 8.44 µM
- GI50 [46]: 2.87 µM
- TGI [46]: 24.1 µM
- GI50 [47]: 2.49 µM
- TGI [47]: 10.4 µM
- GI50 [48]: 2.03 µM
- TGI [48]: 8.15 µM
- GI50 [49]: 2.64 µM
- TGI [49]: 15.1 µM
- GI50 [50]: 2.05 µM
- TGI [50]: 19.5 µM
- GI50 [51]: 2.54 µM
- TGI [51]: 11.1 µM
- GI50 [52]: 3.47 µM
- TGI [52]: 14.1 µM
- GI50 [53]: 1.81 µM
- TGI [53]: 15.8 µM
- GI50 [54]: 1.57 µM
- TGI [54]: 2.99 µM
